From ChEMBL document CHEMBL3421618, “2,6,9-Trisubstituted purines as CRK3 kinase inhibitors with antileishmanial activity in vitro” (Bioorg Med Chem Lett, 2015)

Tests used:
[1] = Cytotoxicity against human BJ cells assessed as cell viability at 30 uM after 72 hrs by fluorescence assay relative to control
Leishmania = conditions: at 30 µM
Description: Inhibition of Leishmania CRK3/CYC6 using histone H1/[gamma33-P]ATP as substrate at 30 uM after 30 mins relative to control

Leishmania donovani = test: Leshmanicidal activity against promastigote stage of Leishmania donovani MHOM/SD/1962/1S-c12d […] after 72 hrs by alamar blue staining-based fluorescence assay; format: functional, organism-based
[2] = Inhibition of Leishmania CRK3/CYC6 using histone H1/[gamma33-P]ATP as substrate after 30 mins
[3] = Leshmanicidal activity against promastigote stage of Leishmania turanica MRHO/MN/08/BZ18 after 72 hrs by alamar blue staining-based fluorescence assay; format: functional
Leishmania major = test: Leshmanicidal activity against promastigote stage of Leishmania major MHOM/IL/2003/LRC-L1025 […] after 72 hrs by alamar blue staining-based fluorescence assay; format: functional, organism-based; conditions: MHOM/IL/2003/LRC-L1025, 72 h

Row | SMILES | viability at 72 h, 30 µM ([1]; BJ cells) [%] | inhibition (Leishmania) [%] | IC50 (Leishmania donovani) [µM] | IC50 [2] [µM] | IC50 [3] [µM] | IC50 (Leishmania major) [µM] | viability at 72 h, 30 µM ([1]; bj) [%]
1 | CC(C)n1cnc2c(NCc3ccccc3)nc(NCCCN)nc21 | 100 | 46.2 | – | – | – | – | –
2 | COc1cccc(CNc2nc(N[C@H]3CC[C@H](N)CC3)nc3c2ncn3C(C)C)c1O | 87.9 | 10.8 | – | – | – | – | –
3 | CC(C)n1cnc2c(NCc3ccccc3O)nc(N3CCNCC3)nc21 | 127 | 55.6 | – | – | – | – | –
4 | CC[C@H](CO)Nc1nc(NCc2ccc(O)cc2)c2ncn(C(C)C)c2n1 | 91.6 | 21.3 | – | – | – | – | –
5 | CC(C)n1cnc2c(NCc3ccccc3)nc(NCCOCCO)nc21 | 69.9 | 56.5 | – | – | – | – | –
6 | CC[C@H](CO)Nc1nc(NCc2cccc(OC)c2O)c2ncn(C(C)C)c2n1 | 89 | 2 | 95.9 | 0.641 | 35.4 | 98.5 | –
7 | CC[C@H](CO)Nc1nc(NCc2ccccc2)c2ncn(C(C)C)c2n1 [SELICICLIB] | 106 | 38.6 | – | – | – | – | –
8 | CC[C@H](CO)Nc1nc(NC(CO)c2ccccc2)c2ncn(C(C)C)c2n1 (stereo not given in full) | 102 | 33.5 | – | – | – | – | –
9 | COc1cccc(CNc2nc(N[C@@H]3CCCC[C@H]3N)nc3c2ncn3C(C)C)c1O | 87.4 | 33.6 | – | – | – | – | –
10 | CC(C)n1cnc2c(NCc3cccc(O)c3)nc(NCCCO)nc21 | 74.6 | 64.6 | – | – | – | – | –
11 | CC[C@H](CO)Nc1nc(NCc2cc(O)ccc2O)c2ncn(C(C)C)c2n1 | 97.7 | 1.5 | – | 0.384 | > 50 | – | –
12 | CC[C@H](CO)Nc1nc(NCc2cccc(O)c2)c2ncn(C(C)C)c2n1 | 85.6 | 36.4 | – | – | – | – | –
13 | CC(C)n1cnc2c(NCc3ccc(O)cc3)nc(NCCCO)nc21 | 84.9 | 53.3 | – | – | – | – | –
14 | CC(C)n1cnc2c(NCc3ccccc3O)nc(NCCCO)nc21 | 85 | 10.5 | – | – | – | – | –
15 | CC[C@H](CO)Nc1nc(NCc2ccccc2O)c2ncn(C(C)C)c2n1 [OLOMOUCINE II] | 79.8 | 1.8 | 62.4 | 0.59 | 11.9 | 47.2 | –
16 | CC(C)n1cnc2c(NCc3ccccc3)nc(NC[C@H](C)O)nc21 | 94.7 | 53.9 | – | – | – | – | –
17 | CC(C)n1cnc2c(NCc3ccccc3)nc(N)nc21 | 72.2 | 87.1 | – | – | – | – | –
18 | CC[C@H](CO)Nc1nc(NCc2cc(C)ccc2O)c2ncn(C(C)C)c2n1 | 70.4 | 0.4 | 2.2 | 0.162 | 11.8 | 2.3 | –
19 | CC[C@H](CO)Nc1nc(Nc2ccc(S(=O)(=O)Nc3nc(C)cc(C)n3)cc2)c2ncn(C(C)C)c2n1 | 105 | 1.2 | – | – | – | – | –
20 | CC(C)n1cnc2c(NCc3ccccc3)nc(NC[C@H](O)CN)nc21 | 74.5 | 43.2 | – | – | – | – | –

Row | SMILES | viability at 72 h, 30 µM ([1]; BJ cells) [%] | inhibition (Leishmania) [%] | IC50 (Leishmania donovani) [µM] | IC50 [2] [µM] | IC50 [3] [µM] | IC50 (Leishmania major) [µM] | viability at 72 h, 30 µM ([1]; bj) [%]
21 | CC[C@H](CO)Nc1nc(NCc2cc(O)cc(O)c2)c2ncn(C(C)C)c2n1 | 83.9 | 15.9 | – | – | – | – | –
22 | CC(C)n1cnc2c(NCc3ccccc3O)nc(N[C@@H]3CCCC[C@H]3N)nc21 | 98.7 | 29.4 | – | – | – | – | –
23 | CC[C@H](CO)Nc1nc(NCc2cc(OC)c(O)c(OC)c2)c2ncn(C(C)C)c2n1 | 103 | 8.3 | – | – | – | – | –
24 | CC[C@H](CO)Nc1nc(NCc2cccc(C)c2O)c2ncn(C(C)C)c2n1 | 82.9 | 3.3 | 12.4 | 1.65 | 23 | 19.8 | –
25 | CC(C)n1cnc2c(NCc3ccccc3)nc(N(CCO)CCO)nc21 | 133 | 47.1 | – | – | – | – | –
26 | CC[C@H](CO)Nc1nc(Nc2ccc(S(N)(=O)=O)cc2)c2ncn(C(C)C)c2n1 | 76.7 | 2.2 | – | 0.214 | > 50 | – | –
27 | CC(C)n1cnc2c(NCc3ccccc3)nc(NCCO)nc21 | 74.2 | 66.6 | – | – | – | – | –
28 | CC(C)n1cnc2c(NCc3ccccc3)nc(NCCN)nc21 | 95.2 | 57.5 | – | – | – | – | –
29 | CC(C)n1cnc2c(NCc3ccccc3)nc(NCCCO)nc21 [BOHEMINE] | – | 49.2 | – | – | – | – | 120
30 | CC[C@H](CO)Nc1nc(NCc2ccc(OC)cc2O)c2ncn(C(C)C)c2n1 | 82.3 | 53.1 | – | – | – | – | –
31 | CC(C)n1cnc2c(NCc3ccccc3O)nc(N[C@H]3CC[C@H](N)CC3)nc21 | 90.4 | 12.2 | – | – | – | – | –
32 | CC[C@H](CO)Nc1nc(NCc2ccc(Br)cc2)c2ncn(C(C)C)c2n1 | 92.3 | 10 | 16.8 | – | 20.1 | 19.4 | –
33 | CC(C)n1cnc2c(NCc3ccccc3O)nc(NCc3ccccc3O)nc21 | 97.5 | 37.8 | – | – | – | – | –
34 | CC[C@H](CO)Nc1nc(Nc2ccc(S(=O)(=O)NC(=N)N)cc2)c2ncn(C(C)C)c2n1 | 84.4 | 0.3 | – | 0.115 | > 50 | – | –
35 | CCOC(=O)c1ccc(Nc2nc(N[C@H](CC)CO)nc3c2ncn3C(C)C)cc1 | 70.1 | 5.6 | – | – | – | – | –
36 | CC[C@H](CO)Nc1nc(NCc2cccc(O)c2O)c2ncn(C(C)C)c2n1 | 80.1 | 2.6 | – | 0.314 | > 50 | – | –
37 | CC[C@H](CO)Nc1nc(NCc2ccccc2N)c2ncn(C(C)C)c2n1 | 95.7 | 9.8 | – | – | – | – | –
38 | CC(C)n1cnc2c(NCc3ccccc3O)nc(N3CCN(CC#N)CC3)nc21 | 91.8 | 71.7 | – | – | – | – | –
39 | CC(C)n1cnc2c(NCc3ccccc3)nc(NCCCCCC#N)nc21 | 77.8 | 49 | – | – | – | – | –
